Patent publication US8367313B2, “Method of determining sperm capacitation” (Cornell University, priority 2003, dated 2013)
“Also recorded” adds a separate entry of the source. Like-named read-outs stand apart in the source and are kept apart here.

Tests used:
[1] = tested on: sterols in sperm plasma membrane; settings: exposure of sperm to sterol acceptor; cited from earlier work
[2] = tested on: GM1 localization in murine sperm; format: cell-based, mouse
[3] = tested on: murine sperm; experiment: Protein tyrosine phosphorylation / capacitation of sperm; format: cell-based, mouse
[4] = Fixative A: 0.004% paraformaldehyde, mouse sperm
[5] = Fixative B: 1.25% paraformaldehyde, 2.5% glutaraldehyde, 100 mM sodium cacodylate, 0.5 mM CaCl2
[6] = Fixative C: 4% paraformaldehyde, 0.1% glutaraldehyde, 1 mM CaCl2
[7] = incubation with the stimulus alone

## bovine serum albumin [BSA]
[1]
  effect on filipin-sterol complexes (FSC): loss of most FSC from the plasma membrane overlying the acrosome

## O=C([O-])O.[Na+] [NaHCO3]
[2]
  GM1 staining localization after exposure to stimulus: staining was observed in the apical acrosome and post-acrosomal region
  sperm with Pattern D (diffuse): 3.2%
[3]
  ability to cause tyrosine phosphorylation or capacitation: not sufficient

## CC(=O)[C@H]1CC[C@H]2[C@@H]3CCC4=CC(=O)CC[C@]4(C)[C@H]3CC[C@]12C [progesterone]
[2]; after capacitating incubation (bicarbonate and 2-OHCD), then progesterone 10 μg/ml for 10 minutes
  GM1 staining localization after induction of acrosomal exocytosis: a signal over the apical acrosome alone; also recorded: concentrated in the region of the apical acrosome

## (2-hydroxypropyl)-β-cyclodextrin [2-OHCD]
[2]; 45 minute incubation, 10 mM HCO3− or 3 mM 2-OHCD, 0.004% paraformaldehyde
  shift in CTb labeling pattern (FIG. 3/FIG. 4 patterns A, B, C): shifts to pattern “C.”
[2]; [4]
  sperm with Pattern A (acrosomal): Ns
  sperm with Pattern AA/PA (apical acrosome and post-acrosomal): 28.8%
  sperm with Pattern D (diffuse): 40.4%
  sperm with Pattern PA (post-acrosomal): 37.9%
[2]; Fixative A: 0.004% paraformaldehyde, mouse sperm, listed as cyclodextrin
  sperm with Pattern D (diffuse): approximately 40%
[2]; [5]
  sperm with Pattern A (acrosomal): 41.8%
  sperm with Pattern AA/PA (apical acrosome and post-acrosomal): 0%
  sperm with Pattern D (diffuse): 0%
  sperm with Pattern PA (post-acrosomal): 58.2%
[2]; [6]
  sperm with Pattern A (acrosomal): 80.5%
  sperm with Pattern AA/PA (apical acrosome and post-acrosomal): 0.2%
  sperm with Pattern D (diffuse): 0%
  sperm with Pattern PA (post-acrosomal): 19.4%
[2]; sperm fixed with 0.004% paraformaldehyde
  GM1 staining localization after exposure to stimulus: a signal in the plasma membrane overlying the acrosome as well as in the post-acrosomal region
[3]; [7]
  ability to cause tyrosine phosphorylation or capacitation: not sufficient
[1]
  effect on filipin-sterol complexes (FSC): loss of most FSC from the plasma membrane overlying the acrosome

## [Ca+2] [Ca^++]
[3]; [7]
  ability to cause tyrosine phosphorylation or capacitation: not sufficient
